Entries after “also recorded” stand apart in the source; their conditions may differ.
Columns and labels:
human MOR-GFP = target: T1, human MOR-GFP (Homo sapiens, UniProt P35372); type: cell-based
T1 construct: Human MOR cDNAs (NM_000914) with or without a stop codon were amplified from the Flexi ORF clone; expressed in transfected cells

human MOR [1] = target: T2, human MOR (Homo sapiens, UniProt P35372); type: cell-based; set-up: Human MOR cDNAs (NM_000914) with or without a stop codon were amplified from the Flexi ORF clone; expressed in transfected cells; pcDNA3.1(+); the cAMP line also carries pGloSensor-22F
human MOR [2] = target: T2, human MOR; assay: biochemical; type: binding; conditions: for % Inhibition of [3H]-diprenorphine binding, MOR: 10 μM test compound, mean n = 2
[3] = target: human δ opioid receptor (DOR) (Homo sapiens, UniProt P41143); assay: Receptor binding assay, primary screening, [3H]-naltrindole, DOR; conditions: 10 μM test compound, mean n = 2
human KOR = human KOR (Homo sapiens, UniProt P41145); assay: Receptor binding assay, primary screening, [3H]-diprenorphine, KOR; conditions: 10 μM test compound, mean n = 2
[4] = target: human nociception receptor (NOP) (Homo sapiens, UniProt P41146); assay: Receptor binding assay, primary screening, [3H]-nociceptin, NOP; conditions: 10 μM test compound, mean n = 2
rat whole brain [5] = assay: Receptor binding assay, primary screening, [3H]-naloxone, rat whole brain; conditions: 10 μM test compound, mean n = 2
[6] = Rat pharmacokinetic study of GJG, plasma LC/MS/MS; type: in vivo; conditions: GJG 1 g/kg oral, 1 h after administration
Experimental: A pharmacokinetic study of GJG was performed to identify the bioavailable molecules in PAT. GJG (1 g/kg) was orally administered to rats and blood samples were collected 1 h after administration. Then, representative components of PAT in the collected blood samples were measured by LC/MS/MS. […] Therefore, we further investigated whether ignavine and benzoylmesaconine affect the opioid system.
Male Sprague-Dawley rats (7 weeks, Japan Clea Inc., Tokyo, Japan) were fasted for more than 16 hours with access to water. At 1 h after oral administration of GJG (1.0 g/10 mL/kg, n = 5), blood samples were collected with a heparin-coated syringe and centrifuged at 1,500 × g for 15 minutes at 4 °C. The plasma samples were stored at −80 °C until use.
Plasma samples were pretreated by solid-phase extraction (Oasis® MCX μ Elution Plate, 30 μm; Waters Corporation, Milford, MA, USA) and injected into the LC/MS/MS system for analysis. Components of GJG in plasma were measured by a QTRAP®5500 system (AB SCIEX, Framingham, MA, USA) equipped with an Agilent 1260 HPLC system (binary pump, online degasser, auto plate-sampler and column oven; Agilent Technologies, Santa Clara, CA, USA). The lower limits for quantification were 0.01 ng/mL for ignavine; 0.002 ng/mL for benzoylaconine; 0.001 ng/mL for benzoylmesaconine, benzoylhypaconine and 14-anisoylaconine.

normal mice [7] = assay: Tail-flick test; type: in vivo
Experimental: (§1) Analgesic activity of ignavine was investigated by the tail-flick (Fig. 6A) and tail-pressure tests in normal mice (Fig. 6B). […] Maximum activity was shown at a dose of 0.1 mg/kg and analgesic activity was attenuated at higher doses. These dose-dependent relationships were similar to the results of in vitro assays.
(§2) Antinociceptive responses were evaluated by the tail-flick test (Tail flick unit; Ugo Basile, Comerio, Italy) and the tail-pressure test (Pressure analgesimeter; Ugo Basile). The latency (sec) or weight (g) at which mice struggled or withdrew was considered the nociceptive threshold.

normal mice [8] = assay: Tail-pressure test; type: in vivo
Experimental: as §1, §2

[9] = set-up: method as in PMID 7116516; conditions: acetic acid-induced writhing and carrageenan paw edema test; cited from earlier work
human MOR [10] = target: T2, human MOR; assay: biochemical; type: binding; set-up: Human MOR cDNAs (NM_000914) with or without a stop codon were amplified from the Flexi ORF clone; expressed in transfected cells; pcDNA3.1(+); the cAMP line also carries pGloSensor-22F
rat whole brain [11] = conditions: read-out: Kd of radioligand, rat brain; assay condition of the binding assay; ref MDS Pharma Services; cited from earlier work
[12] = target: human μ opioid receptor (MOR) (human) (UniProt P35372)
[13] = intra-peritoneal administration, area under the curve
[14] = intra-peritoneal, attenuated at higher doses

T1 sequence (P35372 whole entry): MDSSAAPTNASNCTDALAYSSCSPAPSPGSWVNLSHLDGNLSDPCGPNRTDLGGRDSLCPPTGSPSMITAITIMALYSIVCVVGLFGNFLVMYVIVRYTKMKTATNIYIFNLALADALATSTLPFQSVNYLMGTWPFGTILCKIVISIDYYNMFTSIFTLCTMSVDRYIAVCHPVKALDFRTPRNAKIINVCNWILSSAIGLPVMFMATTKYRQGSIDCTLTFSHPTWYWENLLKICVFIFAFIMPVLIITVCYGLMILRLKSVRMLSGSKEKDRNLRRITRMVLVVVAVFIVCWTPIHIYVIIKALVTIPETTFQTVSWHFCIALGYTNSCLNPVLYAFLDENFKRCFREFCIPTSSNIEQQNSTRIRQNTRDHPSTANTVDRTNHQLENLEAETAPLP
T2 sequence (P35372 whole entry): as above
Chain of human KOR (P41145 whole entry): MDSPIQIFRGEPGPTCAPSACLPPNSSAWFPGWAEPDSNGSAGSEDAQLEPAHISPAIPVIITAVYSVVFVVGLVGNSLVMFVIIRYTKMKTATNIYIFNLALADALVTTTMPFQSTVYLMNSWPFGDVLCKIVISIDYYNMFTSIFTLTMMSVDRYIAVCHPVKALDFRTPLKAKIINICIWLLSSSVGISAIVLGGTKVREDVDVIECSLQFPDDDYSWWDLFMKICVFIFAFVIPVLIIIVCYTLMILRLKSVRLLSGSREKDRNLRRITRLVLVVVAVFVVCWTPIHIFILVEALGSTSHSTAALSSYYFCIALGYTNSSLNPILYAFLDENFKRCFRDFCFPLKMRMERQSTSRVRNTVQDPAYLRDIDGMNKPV
Chain of human δ opioid receptor (DOR) (P41143 whole entry): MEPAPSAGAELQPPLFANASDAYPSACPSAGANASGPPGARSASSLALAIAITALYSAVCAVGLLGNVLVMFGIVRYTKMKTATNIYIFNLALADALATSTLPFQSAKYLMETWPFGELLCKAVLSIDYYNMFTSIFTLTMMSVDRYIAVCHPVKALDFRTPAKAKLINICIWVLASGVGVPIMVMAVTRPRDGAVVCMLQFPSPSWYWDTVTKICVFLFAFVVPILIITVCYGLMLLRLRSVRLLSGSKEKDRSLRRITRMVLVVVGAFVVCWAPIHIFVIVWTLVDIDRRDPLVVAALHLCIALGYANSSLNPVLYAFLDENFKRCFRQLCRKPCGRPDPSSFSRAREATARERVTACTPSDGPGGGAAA
Chain of human nociception receptor (NOP) (P41146 whole entry): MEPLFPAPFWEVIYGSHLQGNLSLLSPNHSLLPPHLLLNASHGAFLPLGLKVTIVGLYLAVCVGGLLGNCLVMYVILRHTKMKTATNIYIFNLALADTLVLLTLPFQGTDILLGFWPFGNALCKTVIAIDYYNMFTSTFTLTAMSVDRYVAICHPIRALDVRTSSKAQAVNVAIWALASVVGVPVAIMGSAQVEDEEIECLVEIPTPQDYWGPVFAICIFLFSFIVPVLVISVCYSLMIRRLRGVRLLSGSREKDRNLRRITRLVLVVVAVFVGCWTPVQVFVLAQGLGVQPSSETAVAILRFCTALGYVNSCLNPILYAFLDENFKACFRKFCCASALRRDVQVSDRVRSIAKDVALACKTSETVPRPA
Chain of human μ opioid receptor (MOR) (human) (P35372 whole entry): as the sequence (P35372 whole entry) above

C[C@@H](NC(=O)[C@@H](N)Cc1ccc(O)cc1)C(=O)NCC(=O)N(C)[C@@H](Cc1ccccc1)C(=O)NCCO [DAMGO, D-Ala(2)-N-Me-Phe(4)-Gly-ol(5)-enkephalin, reference compound]
MOR internalization (vesicle formation) (human MOR-GFP): vesicles were observed in the intracellular space; also recorded: induced vesicle formation
Effect on forskolin-induced increase of intracellular cAMP (human MOR [1]): inhibited the increase of intracellular cAMP

COC[C@]12CN(C)C3[C@@H]4[C@H](OC)[C@H]1[C@@]3([C@@H](OC)C[C@H]2O)[C@@H]1C[C@@]2(O)[C@H](OC(=O)c3ccccc3)[C@@H]1[C@]4(O)[C@@H](O)[C@@H]2OC [benzoylmesaconine]
% Inhibition of [3H]-diprenorphine binding, MOR (human MOR [2]): 2%
% Inhibition of radioligand binding, DOR [3]: -8%
% Inhibition of [3H]-diprenorphine binding, KOR (human KOR; 10 µM): Neither ignavine nor benzoylmesaconine inhibited
% Inhibition of [3H]-diprenorphine binding, KOR (human KOR; listed as Benzoylmesaconine, 10 µM): 3%
% Inhibition of radioligand binding, NOP [4]: -9%
% Inhibition of [3H]-naloxone binding, rat brain (rat whole brain [5]): 17%
Plasma concentration after oral GJG [6]: higher concentrations

C=C1C2CC3C4N5CC6(C)C(O)C(OC(=O)c7ccccc7)CC47C6C5CC3(C1O)C7(O)C2 (stereo not shown) [ignavine]
% Inhibition of [3H]-diprenorphine binding, MOR (human MOR [2]): almost completely inhibited
inhibition at 10 µM (human MOR [2]; read-out: % Inhibition of [3H]-diprenorphine binding, MOR): 90%
inhibition at 10 µM ([3]; read-out: % Inhibition of radioligand binding, DOR): -5%
% Inhibition of [3H]-diprenorphine binding, KOR (human KOR): Neither ignavine nor benzoylmesaconine inhibited
inhibition at 10 µM (human KOR): 0%
inhibition at 10 µM ([4]; read-out: % Inhibition of radioligand binding, NOP): -7%
% Inhibition of [3H]-naloxone binding, rat brain (rat whole brain [5]; 10 µM): also inhibited its binding
% Inhibition of [3H]-naloxone binding, rat brain (rat whole brain [5]; listed as Ignavine, 10 µM): 92%
MOR internalization, ignavine alone (human MOR-GFP): did not affect receptor internalization
Analgesic activity, tail-flick test (normal mice [7]; [13]): inhibited pain
Dose of maximum analgesic activity, tail-flick test (normal mice [7]; [14]): 0.1 mg/kg
Analgesic activity, tail-pressure test (normal mice [8]; [13]): inhibited pain
Dose of maximum analgesic activity, tail-pressure test (normal mice [8]; [14]): 0.1 mg/kg
Plasma concentration after oral GJG [6]: highest concentration among the measured components; also recorded: higher concentrations
Anti-inflammatory activity and adverse effects [9]: anti-inflammatory activity
IC50 (human MOR [10]): 2000 nM
Effect on intracellular cAMP levels, ignavine alone (human MOR [1]): no effect
Fold increase of EC50 of DAMGO (human MOR [1]): 3.3 fold
Modulation of DAMGO activity in cAMP assay, early period (human MOR [1]): enhancing the activity of DAMGO
Modulation of DAMGO activity in cAMP assay, later period (human MOR [1]): inhibiting DAMGO activity
Modulation of endomorphin-1 (EMP-1) activity in cAMP assay (human MOR [1]): positive modulation
Modulation of endomorphin-1 activity in cAMP assay (human MOR [1]): inhibited them
Modulation of morphine (MRP) activity in cAMP assay (human MOR [1]): positive modulation
Modulation of morphine activity in cAMP assay (human MOR [1]): inhibited them
Response in cAMP assay in the presence of naloxone (human MOR [1]): did not show a clear response

C=CCN1CC[C@]23c4c5ccc(O)c4O[C@H]2C(=O)CC[C@@]3(O)[C@H]1C5 [naloxone]
Kd (rat whole brain [11]): 1.4 nM

D-Ala(2)-N-Me-Phe(4)-Gly-ol(5)-enkephalin (peptide)
EC50 of DAMGO in the intracellular cAMP assay, fold change with 1 μM ignavine against DMSO, 7.5 min after forskolin [12]: 3.8 fold
EC50 of DAMGO in the intracellular cAMP assay, fold change with 10 μM ignavine against DMSO, 23.5 min after forskolin [12]: 3.3 fold
